Measurements from patent publication US20060009493A1, “Indolinone hydrazides as c-Met inhibitors” (Sugen, Inc., priority 2003, published 2006).
Counter-ions that a name gives are not always drawn.

Target: T1, GST fusion protein containing the Met kinase domain (Homo sapiens, UniProt P08581)
T1 construct: Purified GST fusion protein containing the Met kinase domain, Sugen, Inc
Test: MET Transphosphorylation Assay (ELISA, poly(Glu,Tyr) 4:1 substrate)
Format: biochemical
Conditions: met transphosphorylation of poly(glutamic acid:tyrosine 4:1) substrate; two values in a cell separated by '/'
Method: MET Transphosphorylation Assay
This assay is used to measure phosphotyrosine levels on a poly(glutamic acid:tyrosine (4:1)) substrate as a means for identifying agonists/antagonists of met transphosphorylation of the substrate.
• 1. […] PBS, Gibco Catalog # 450-1300EB • 4. 50 mM HEPES • 5. […] Purified GST fusion protein containing the Met kinase domain, Sugen, Inc. • 7. TBST Buffer. • 8. 10% aqueous (MilliQue H2O) DMSO. • 9. […] 2× Kinase Dilution Buffer: for 100 ml, mix 10 mL 1M HEPES at pH 7.5 with 0.4 mL 5% BSA/PBS, 0.2 mL 0.1 M sodium orthovanadate and 1 mL 5M sodium chloride in 88.4 mL dH2O. • 11. 4×ATP Reaction Mixture: for 10 mL, mix 0.4 mL 1 M manganese chloride and 0.02 mL 0.1 M ATP in […] dH2O. • 12. 4× Negative Controls Mixture: for 10 mL, mix 0.4 mL 1 M manganese chloride in 9.6 mL dH2O.
13. […] 500 mM EDTA. • 15. Antibody Dilution Buffer: for 100 mL, mix 10 mL 5% BSA/PBS, 0.5 mL 5% Carnation Instant Milk® in PBS and 0.1 mL 0.1 M sodium orthovanadate in 88.4 mL TBST. • 16. Rabbit polyclonal antophosphotyrosine antibody, Sugen, Inc. • 17. Goat anti-rabbit horseradish peroxidase conjugated antibody, Biosource, Inc. • 18. ABTS Solution: for 1 L, mix 19.21 g citric acid, 35.49 g Na2HPO4 and 500 mg ABTS with sufficient dH2O to make 1 L. • 19. ABTS/H2O2: mix 15 mL ABST solution with 2 μL H2O2 five minutes before use. • 20. 0.2 M HCl Procedure: • 1. Coat ELISA plates with 2 μg Poly(Glu-Tyr) in 100 μL PBS, store overnight at 4° C. • 2. Block plate with 150 μL of 5% BSA/PBS for 60 min. • 3. Wash plate twice with PBS, once with 50 mM Hepes buffer pH 7.4. • 4. Add 50 μl of the diluted kinase to all wells. (Purified kinase is diluted with Kinase Dilution Buffer. Final concentration should be 10 ng/well.) • 5. Add 25 μL of the test compound (in 4% DMSO) or DMSO alone (4% in dH2O) for controls to plate. • 6. Incubate the kinase/compound mixture for 15 minutes. • 7. Add 25 μL of 40 mM MnCl2 to the negative control wells. • 8. Add 25 μL ATP/MnCl2 mixture to the all other wells (except the negative controls). Incubate for 5 min. • 9. Add 25 μL 500 mM EDTA to stop reaction. • 10. Wash plate 3× with TBST. • 11. Add 100 μL rabbit polyclonal anti-Ptyr diluted 1:10,000 in Antibody Dilution Buffer to each well. Incubate, with shaking, at room temperature for one hour. • 12. Wash plate 3× with TBST. • 13. […] Add 100 μL per well and incubate at room temperature, with shaking, for one hour. • 14. Wash plate 1× with PBS. • 15. Add 100 μl of ABTS/H2O2 solution to each well. • 16. If necessary, stop the development reaction with the addition of […] of 0.2M HCl per well. • 17.

T1 sequence (P08581 1078-1345 limits assumed): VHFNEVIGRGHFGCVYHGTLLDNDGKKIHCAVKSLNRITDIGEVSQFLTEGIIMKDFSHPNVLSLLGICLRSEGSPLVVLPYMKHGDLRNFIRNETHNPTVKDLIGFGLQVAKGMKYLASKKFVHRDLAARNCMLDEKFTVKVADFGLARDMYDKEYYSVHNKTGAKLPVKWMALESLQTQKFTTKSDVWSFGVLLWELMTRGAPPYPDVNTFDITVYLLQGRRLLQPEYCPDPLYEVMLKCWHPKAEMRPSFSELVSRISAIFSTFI

Row | Compound | IC50 [nM]
1 | O=C(Cc1ccccc1)N/N=C1\C(=O)Nc2ccccc21 [II-6, Phenyl-acetic acid [(3E)-2-oxo-1,2-dihydro-indol-3-ylidene]-hydrazide] | > 20000
2 | CC(C)(C(=O)N/N=C1\C(=O)Nc2ccc(C(=O)O)c(Cl)c21)c1ccc(Cl)cc1 [II-92, (3Z)-4-Chloro-3-{[2-(4-chloro-phenyl)-2-methyl-propionyl]-hydrazono}-2-oxo-2,3-dihydro-1H-indole-5-carboxylic acid] | > 20000
3 | CC(C(=O)N/N=C1\C(=O)Nc2ccc(C(=O)N3CC[C@H](N)C3)c(Cl)c21)c1ccc(F)cc1 (stereo partly drawn) [Example I-48, 2-(4-Fluoro-phenyl)-propionic acid [(3Z)-5-[(3S)-3-amino-pyrrolidine-1-carbonyl]-4-chloro-2-oxo-1,2-dihydro-indol-3-ylidene]-hydrazide trifluoroacetate] | 460
4 | Cc1cc(C)c2c(c1)/C(=N/NC(=O)Cc1ccc(O)cc1)C(=O)N2 [II-26, (4-Hydroxy-phenyl)-acetic acid [(3Z)-5,7-dimethyl-2-oxo-1,2-dihydro-indol-3-ylidene]-hydrazide] | 20
5 | O=C(Cc1ccc(O)cc1)N/N=C1\C(=O)Nc2ccc(S(=O)(=O)Cc3c(Cl)cccc3Cl)cc21 [Example I-8, (4-Hydroxy-phenyl)-acetic acid [(3Z)-5-(2,6-dichloro-phenylmethanesulfonyl)-2-oxo-1,2-dihydro-indol-3-ylidene]-hydrazide] | 7
6 | O=C(Cc1ccc(O)c(Cl)c1)N/N=C1\C(=O)Nc2ccc(C(=O)O)c(Cl)c21 [Example I-37, (3Z)-4-Chloro-3-{[2-(3-chloro-4-hydroxy-phenyl)-acetyl]-hydrazono}-2-oxo-2,3-dihydro-1H-indole-5-carboxylic acid] | 29
7 | COc1cccc2c1NC(=O)/C2=N\NC(=O)Cc1ccc(O)cc1 [II-60, (4-Hydroxy-phenyl)-acetic acid [(3Z)-7-methoxy-2-oxo-1,2-dihydro-indol-3-ylidene]-hydrazide] | 65
8 | O=C(Cc1ccc(O)c(O)c1)N/N=C1\C(=O)Nc2ccccc21 [II-41, (3,4-Dihydroxy-phenyl)-acetic acid [(3Z)-2-oxo-1,2-dihydro-indol-3-ylidene]-hydrazide] | 1770
9 | CN1CCN(S(=O)(=O)c2ccc3c(c2)/C(=N/NC(=O)Cc2ccc(O)cc2)C(=O)N3)CC1 [Example I-25, (4-Hydroxy-phenyl)-acetic acid [(3Z)-5-(4-methyl-piperazine-1-sulfonyl)-2-oxo-1,2-dihydro-indol-3-ylidene]-hydrazide] | 77
10 | CC(C(=O)N/N=C1\C(=O)Nc2c(Cl)ccc(Cl)c21)c1ccc(O)cc1 (stereo not drawn) [II-77, 2-(4-Hydroxy-phenyl)-propionic acid [(3Z)-4,7-dichloro-2-oxo-1,2-dihydro-indol-3-ylidene]-hydrazide] | 15
11 | COc1ccc(CC(=O)N/N=C2\C(=O)Nc3ccccc32)cc1OC [II-5, (3,4-Dimethoxy-phenyl)-acetic acid [(3Z)-2-oxo-1,2-dihydro-indol-3-ylidene]-hydrazide] | > 20000
12 | CC(C(=O)N/N=C1\C(=O)Nc2ccc(Cl)c(Cl)c21)c1ccc(O)cc1 (stereo not drawn) [II-44] | 22
13 | O=C(Cc1c[nH]c(=O)[nH]c1=O)N/N=C1\C(=O)Nc2ccccc21 [II-90, (2,4-Dioxo-1,2,3,4-tetrahydro-pyrimidin-5-yl)-acetic acid [(3Z)-2-oxo-1,2-dihydro-indol-3-ylidene]-hydrazide] | > 20000
14 | COC(=O)c1ccc2c(c1)/C(=N/NC(=O)Cc1ccc(O)cc1)C(=O)N2 [Example I-11, (3Z)-3-{[2-(4-Hydroxy-phenyl)-acetyl]-hydrazono}-(3Z)-2-oxo-2,3-dihydro-1H-indole-5-carboxylic acid methyl ester] | 43
15 | O=C(Cc1ccc(O)cc1)N/N=C1\C(=O)Nc2ccccc21 [II-23, (4-Hydroxy-phenyl)-acetic acid [(3E)-2-oxo-1,2-dihydro-indol-3-ylidene]-hydrazide] | 520
16 | O=C(Cn1ccc(=O)[nH]c1=O)N/N=C1\C(=O)Nc2c(Cl)ccc(Cl)c21 [II-72, (2,4-Dioxo-3,4-dihydro-2H-pyrimidin-1-yl)-acetic acid [(3Z)-4,7-dichloro-2-oxo-1,2-dihydro-indol-3-ylidene]-hydrazide] | > 20000
17 | O=C(Cc1ccc(O)nc1)N/N=C1\C(=O)Nc2c(Cl)ccc(Cl)c21 [II-56, (6-Hydroxy-pyridin-3-yl)-acetic acid [(3Z)-4,7-dichloro-2-oxo-1,2-dihydro-indol-3-ylidene]-hydrazide] | 21
18 | O=C(Cc1ccc(Cl)cc1)N/N=C1\C(=O)Nc2ccccc21 [II-4, (4-Chloro-phenyl)-acetic acid [(3Z)-2-oxo-1,2-dihydro-indol-3-ylidene]-hydrazide] | 5870
19 | O=C(Cc1cccc(Cl)c1)N/N=C1\C(=O)Nc2ccc(Br)cc21 [II-15, (3-Chloro-phenyl)-acetic acid [(3Z)-5-bromo-2-oxo-1,2-dihydro-indol-3-ylidene]-hydrazide] | 13700
20 | COc1ccc(CC(=O)N/N=C2\C(=O)Nc3c(C)ccc(C)c32)cc1C#N [II-107, (3-Cyano-4-methoxy-phenyl)-acetic acid [(3Z)-4,7-dimethyl-2-oxo-1,2-dihydro-indol-3-ylidene]-hydrazide] | > 20000
21 | O=C(Cc1ccc(O)nc1)N/N=C1\C(=O)Nc2ccc(C(=O)N3CCC[C@@H]3CNC3CC3)c(Cl)c21 [Example I-45, (6-Hydroxy-pyridin-3-yl)-acetic acid [(3Z)-4-chloro-5-[(2R)-2-cyclopropylaminomethyl-pyrrolidine-1-carbonyl]-2-oxo-1,2-dihydro-indol-3-ylidene]-hydrazide] | 1300
22 | O=C(Cc1ccc(O)cc1)N/N=C1\C(=O)Nc2cc(Cl)ccc21 [II-51, (4-Hydroxy-phenyl)-acetic acid [(3Z)-6-chloro-2-oxo-1,2-dihydro-indol-3-ylidene]-hydrazide] | 17
23 | Cc1ccc(C)c2c1NC(=O)/C2=N\NC(=O)Cc1ccc(O)c(F)c1 [II-49, (3-Fluoro-4-hydroxy-phenyl)-acetic acid [(3Z)-4,7-dimethyl-2-oxo-1,2-dihydro-indol-3-ylidene]-hydrazide] | < 9.1
24 | Cc1ccc(C)c2c1NC(=O)/C2=N\NC(=O)Cc1ccc(O)cc1 [II-31, (4-Hydroxy-phenyl)-acetic acid [(3Z)-4,7-dimethyl-2-oxo-1,2-dihydro-indol-3-ylidene]-hydrazide] | 15
25 | O=C(Cc1ccc(O)cc1)N/N=C1\C(=O)Nc2c(Cl)cc(Cl)cc21 [II-61, (4-Hydroxy-phenyl)-acetic acid [(3Z)-5,7-dichloro-2-oxo-1,2-dihydro-indol-3-ylidene)-hydrazide] | 88
26 | Cc1ccc(CC(=O)N/N=C2\C(=O)Nc3ccccc32)cc1 [II-11, p-Tolyl-acetic acid [(3Z)-2-oxo-1,2-dihydro-indol-3-ylidene]-hydrazide] | > 20000
27 | COc1ccc2c(c1Cl)/C(=N/NC(=O)Cc1ccc(O)cc1)C(=O)N2 [II-94, (4-Hydroxy-phenyl)-acetic acid [(3Z)-4-chloro-5-methoxy-2-oxo-1,2-dihydro-indol-3-ylidene]-hydrazide] | 21
28 | O=C(Cc1ccc(F)cc1)N/N=C1\C(=O)Nc2ccccc21 [II-27, (4-Fluoro-phenyl)-acetic acid [(3Z)-2-oxo-1,2-dihydro-indol-3-ylidene]-hydrazide] | 2150
29 | CC(C)Oc1ccc(CC(=O)N/N=C2\C(=O)Nc3ccccc32)cc1 [II-9, (4-Isopropoxy-phenyl)-acetic acid [(3Z)-2-oxo-1,2-dihydro-indol-3-ylidene]-hydrazide] | > 20000
30 | CC(C)(C(=O)N/N=C1\C(=O)Nc2c(Cl)ccc(Cl)c21)c1ccc(Cl)cc1 [II-91, 2-(4-Chloro-phenyl)-2-methyl-propionic acid [(3Z)-4,7-dichloro-2-oxo-1,2-dihydro-indol-3-ylidene]-hydrazide] | > 20000
